Laboratory results published in patent US11071721B2, “Bicyclic amide compounds and methods of use thereof” (Genentech, Inc., priority 2016, dated 2021).

Biological target: human RIP1 kinase domain (2-375) (Homo sapiens (Human), UniProt Q13546)
Experiment: RIP1 kinase inhibition assay (Transcreener ADP biochemical enzyme assay)
Details: Ki app (Morrison tight-binding fit); 50 nM enzyme, 50 uM ATP, 2 hours incubation, fluorescence polarization
Method in brief: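 Baculovirus-expressed human RIP1 kinase domain (2-375), 50 nM, incubated 2 h with compound in pH 7.5 Hepes with 30 mM MgCl2, 1 mM DTT, 50 uM ATP, 0.5% DMSO. ADP detected by Transcreener fluorescence polarization (antibody/AlexaFluor 633 tracer displacement). Ki^app from Morrison tight-binding fit of fractional activity.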

human RIP1 kinase domain (2-375), sequence (Q13546 2-375): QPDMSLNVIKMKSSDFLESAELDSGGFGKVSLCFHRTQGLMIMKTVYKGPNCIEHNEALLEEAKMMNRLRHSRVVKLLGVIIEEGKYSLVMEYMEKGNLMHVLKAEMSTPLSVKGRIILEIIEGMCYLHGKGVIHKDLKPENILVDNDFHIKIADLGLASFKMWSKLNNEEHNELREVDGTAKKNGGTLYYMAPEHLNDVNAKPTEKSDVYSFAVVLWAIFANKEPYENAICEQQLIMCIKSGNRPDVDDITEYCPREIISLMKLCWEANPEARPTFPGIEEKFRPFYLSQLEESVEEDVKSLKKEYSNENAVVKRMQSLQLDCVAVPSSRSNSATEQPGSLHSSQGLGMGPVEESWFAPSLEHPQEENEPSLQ

Ki [µM] | Structure (SMILES)
0.066 | O=C(c1nc2n(n1)[C@@H](c1ccccc1)CC2)N1CC(F)(F)C1 (stereo in doubt) [Example 32, (3,3-difluoroazetidin-1-yl)-[rac-(5R)-5-phenyl-6,7-dihydro-5H-pyrrolo[1,2-b][1,2,4]triazol-2-yl]methanone]
0.011 | O=C(c1nc2n(n1)[C@@H](c1ccccc1)C[C@H]2F)N1CCC(F)(F)C1 (stereo in doubt) [Example 54, (3,3-difluoropyrrolidin-1-yl)-[rac-(5R,7R)-7-fluoro-5-phenyl-6,7-dihydro-5H-pyrrolo [1,2-b][1,2,4]triazol-2-yl]methanone]
0.015 | O=C(c1nc2n(n1)[C@@H](c1ccccc1)C[C@H]2F)N1CCn2nccc2C1 (stereo in doubt) [Example 66, 6,7-dihydro-4H-pyrazolo[1,5-a]pyrazin-5-yl-[rac-(5R,7R)-7-fluoro-5-phenyl-6,7-dihydro-5H-pyrrolo[1,2-b][1,2,4]triazol-2-yl]methanone]
0.005 | O=C(c1nc2n(n1)[C@@H](c1ccccc1)C[C@H]2F)N1CCc2cccnc2C1 (stereo in doubt) [Example 67, 6,8-dihydro-5H-1,7-naphthyridin-7-yl-[rac-(5R,7R)-7-fluoro-5-phenyl-6,7-dihydro-5H-pyrollo[1,2-b][1,2,4]triazol-2-yl]methanone]
0.052 | O=C(c1nc2n(n1)[C@H](c1ccccc1)C[C@@H]2F)N1CCn2nccc2C1 (stereo in doubt) [Example 69, 6,7-dihydro-4H-pyrazolo[1,5-a]pyrazin-5-yl-[rac-(5S,7S)-7-fluoro-5-phenyl-6,7-dihydro-5H-pyrrolo[1,2-b][1,2,4]triazol-2-yl]methanone]
0.024 | O=C(c1nc2n(n1)[C@H](c1ccccc1)C[C@@H]2F)N1CCc2cccnc2C1 (stereo in doubt) [Example 74, 6,8-dihydro-5H-1,7-naphthyridin-7-yl-[rac-(5S, 7S)-7-fluoro-5-phenyl-6,7-dihydro-5H-pyrrolo [1,2-b][1,2,4]triazol-2-yl]methanone]
0.031 | O=C(c1nc2n(n1)[C@@H](c1ccccc1)C[C@H]2F)N1CCc2ccccc2C1 (stereo in doubt) [Example 76]
0.036 | O=C(c1nc2n(n1)[C@H](c1ccccc1)C[C@@H]2F)N1CCC(F)(F)C1 (stereo in doubt) [Example 98, (3,3-difluoropyrrolidin-1-yl)-[rac-(5S,7S)-7-fluoro-5-phenyl-6,7-dihydro-5H-pyrrolo [1,2-b][1,2,4]triazol-2-yl]methanone]
0.013 | O=C(c1nc2n(n1)[C@H](c1ccccc1)C[C@@H]2F)N1CCc2ccccc2C1 (stereo in doubt) [Example 99, 3,4-dihydro-1H-isoquinolin-2-yl-[rac-(5S,7S)-7-fluoro-5-phenyl-6,7-dihydro-5H-pyrrolo[1,2-b][1,2,4]triazol-2-yl]methanone]
0.009 | O=C(c1nc2n(n1)[C@H](c1ccccc1)C[C@@H]2F)N1CC(F)(F)C1 [Example 3, (3,3-difluoroazetidin-1-yl)-[(5S,7S)-7-fluoro-5-phenyl-6,7-dihydro-5H-pyrrolo[1,2-b][1,2,4]triazol-2-yl]methanone]
2.66 | O=C(c1cc2n(n1)CC[C@@H]2c1ccccc1)N1CC(F)(F)C1 [Example 9, (3,3-difluoroazetidin-1-yl)-[(4R)-4-phenyl-5,6-dihydro-4H-pyrrolo[1,2-b]pyrazol-2-yl]methanone]
6.7 | CCC(F)(F)n1ncc2cnc(C(=O)N3CC(F)(F)C3)cc21 [Example 103]
